For the test, the system named is B. cepacia biofilm. Format: cell-based, Burkholderia cepacia.

As for `O=[O+][O-]` [ozone, Ozone], the “biocide efficacy (rank order, from cell number/3000 μm^2 and total cell area vs elapsed time)” value is “greatest”.

Source of the values: patent US6498862B1 (priority 1999, dated 2002).
